According to publication PMC2920453 (Chemistry & biology, 2010):

Assays:
FGFR1 = FGFR1 (Homo sapiens, UniProt P11362); settings: ref Kammasud et al., 2007; cited from earlier work
[1] = system: iFGFR1-activated MCF10A cells; assay: 3D Matrigel culture morphogenesis; type: cell-based; settings: 3D culture
wild-type MCF10A cells = assay: Growth of wild-type MCF10A cells; type: cell-based
V561M FGFR1 = V561M FGFR1 (Homo sapiens, UniProt P11362, V561M); settings: 10 μM, 1 hour drug treatment, HEK293
KATO III = assay: cells; settings: Homo sapiens, 72 h
RT4 = assay: cells; settings: Homo sapiens, RT-4, 72 h
SNU-16 [2] = assay: cells; settings: Homo sapiens, SNU-16, 72 h
STS-0421 = assay: cells; settings: Homo sapiens, 72 h
G-401 = assay: cells; settings: Homo sapiens, G-401, 72 h
SBC-3 [3] = assay: cells; settings: Homo sapiens, SBC-3, 72 h
A2.1 = assay: cells; settings: Homo sapiens, 72 h
A2780 [4] = assay: cells; settings: Homo sapiens, A2780, 72 h
FU97 = assay: cells; settings: Homo sapiens, Fu97, 72 h
G-402 = assay: cells; settings: Homo sapiens, G-402, 72 h
R082-W-1 = assay: cells; settings: Homo sapiens, 72 h
LU99A = assay: cells; settings: Homo sapiens, LU-99A, 72 h
RD-ES = assay: cells; settings: Homo sapiens, 72 h
PA-1 = assay: cells; settings: Homo sapiens, PA-1, 72 h
JAR = assay: cells; settings: Homo sapiens, 72 h
H520 = assay: cells; settings: Homo sapiens, NCI-H520, 72 h
VM-CUB1 = assay: cells; settings: Homo sapiens, VM-CUB-1, 72 h
NCI-H1703 = assay: cells; settings: Homo sapiens, NCI-H1703, 72 h
JHH-7 = assay: cells; settings: Homo sapiens, JHH7, 72 h
TOV-112D = assay: cells; settings: Homo sapiens, TOV112D, 72 h
MFE-296 cells = assay: Endometrial carcinoma cell proliferation; settings: activating FGFR2 mutation; 4 days
AN3CA cells = assay: Endometrial carcinoma cell proliferation; settings: activating FGFR2 mutation; 4 days
Hec-1B cells = assay: Endometrial carcinoma cell proliferation; settings: wild type FGFR2; 4 days
FLT1 = FLT1 (Homo sapiens, UniProt P17948); assay: Z'-lyte kinase assay; type: biochemical
wild-type Ba/F3 cells = assay: cells; settings: Mus musculus, BaF3, 48 h
A2780 [5] = assay: Survival pathways immunoblot; settings: 200 nM, 6 hours
SBC-3 [6] = assay: Survival pathways immunoblot; settings: 200 nM, 6 hours
KATO-III = assay: Pro-survival signaling; settings: 200 nM, 6 hours
SNU-16 [7] = assay: Pro-survival signaling; settings: 200 nM, 6 hours
WT iFGFR1 MCF10A cells = assay: iFGFR1-dependent MCF10A proliferation; settings: Homo sapiens, MCF-10A, 48 h

V561M FGFR1, sequence (P11362 22-822 V561M): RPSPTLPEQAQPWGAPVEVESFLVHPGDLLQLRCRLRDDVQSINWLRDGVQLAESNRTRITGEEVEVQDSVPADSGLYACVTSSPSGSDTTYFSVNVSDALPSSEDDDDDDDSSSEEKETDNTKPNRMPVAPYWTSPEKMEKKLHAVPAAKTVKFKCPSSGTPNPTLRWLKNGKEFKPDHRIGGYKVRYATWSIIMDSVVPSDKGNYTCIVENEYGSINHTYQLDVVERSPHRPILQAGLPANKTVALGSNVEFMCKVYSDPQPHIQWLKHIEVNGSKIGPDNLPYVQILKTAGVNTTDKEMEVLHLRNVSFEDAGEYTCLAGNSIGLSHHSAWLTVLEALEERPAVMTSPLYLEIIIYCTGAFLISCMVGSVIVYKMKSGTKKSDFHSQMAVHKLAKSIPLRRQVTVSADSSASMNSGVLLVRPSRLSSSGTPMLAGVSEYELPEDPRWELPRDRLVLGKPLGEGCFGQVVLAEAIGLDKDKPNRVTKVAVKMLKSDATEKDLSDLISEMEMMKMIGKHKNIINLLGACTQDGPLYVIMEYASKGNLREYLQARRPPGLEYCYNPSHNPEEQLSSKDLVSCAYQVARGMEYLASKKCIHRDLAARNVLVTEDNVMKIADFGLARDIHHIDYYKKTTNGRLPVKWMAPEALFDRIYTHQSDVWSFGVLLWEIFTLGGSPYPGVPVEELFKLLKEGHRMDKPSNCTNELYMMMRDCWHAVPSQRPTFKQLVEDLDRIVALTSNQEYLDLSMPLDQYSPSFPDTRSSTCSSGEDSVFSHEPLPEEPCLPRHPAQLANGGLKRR
FLT1, sequence (P17948 27-1338): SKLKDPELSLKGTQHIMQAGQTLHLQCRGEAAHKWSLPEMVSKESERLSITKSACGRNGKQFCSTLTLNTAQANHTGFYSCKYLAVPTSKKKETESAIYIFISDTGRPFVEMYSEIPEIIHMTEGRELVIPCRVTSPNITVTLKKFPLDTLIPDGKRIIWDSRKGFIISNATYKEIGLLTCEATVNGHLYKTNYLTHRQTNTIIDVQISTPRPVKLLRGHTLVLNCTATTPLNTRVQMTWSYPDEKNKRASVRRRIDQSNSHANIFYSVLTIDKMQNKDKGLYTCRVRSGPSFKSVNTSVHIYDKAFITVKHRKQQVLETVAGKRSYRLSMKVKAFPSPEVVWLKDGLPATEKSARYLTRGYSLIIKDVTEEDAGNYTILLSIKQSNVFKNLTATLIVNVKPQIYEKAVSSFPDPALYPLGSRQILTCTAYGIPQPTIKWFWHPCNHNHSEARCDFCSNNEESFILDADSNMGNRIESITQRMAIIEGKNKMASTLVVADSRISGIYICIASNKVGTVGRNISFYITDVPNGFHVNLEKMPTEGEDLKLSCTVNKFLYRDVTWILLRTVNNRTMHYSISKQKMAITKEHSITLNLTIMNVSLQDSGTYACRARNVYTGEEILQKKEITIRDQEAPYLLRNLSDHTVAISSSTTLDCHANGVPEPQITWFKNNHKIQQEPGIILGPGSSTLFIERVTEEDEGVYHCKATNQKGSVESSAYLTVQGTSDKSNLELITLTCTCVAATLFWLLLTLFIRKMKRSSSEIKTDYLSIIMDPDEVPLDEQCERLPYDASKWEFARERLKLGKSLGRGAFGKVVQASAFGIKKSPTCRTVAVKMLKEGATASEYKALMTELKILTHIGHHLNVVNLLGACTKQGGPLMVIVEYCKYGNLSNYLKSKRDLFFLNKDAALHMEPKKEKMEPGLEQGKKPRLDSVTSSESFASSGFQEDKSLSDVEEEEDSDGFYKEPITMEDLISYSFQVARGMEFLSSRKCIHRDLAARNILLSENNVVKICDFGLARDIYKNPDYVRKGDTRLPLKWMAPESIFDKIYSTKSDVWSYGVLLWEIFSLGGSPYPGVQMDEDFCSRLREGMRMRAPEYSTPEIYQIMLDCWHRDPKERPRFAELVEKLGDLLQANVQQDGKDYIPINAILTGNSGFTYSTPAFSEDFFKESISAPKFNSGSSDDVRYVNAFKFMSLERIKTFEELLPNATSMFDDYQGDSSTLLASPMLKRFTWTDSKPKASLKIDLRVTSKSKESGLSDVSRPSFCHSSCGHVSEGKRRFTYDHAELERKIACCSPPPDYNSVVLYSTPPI
FGFR1, sequence (P11362 22-822): as the sequence (P11362 22-822 V561M) above, with M540V counted along it

COc1cc(OC)cc(-c2ccc3c(c2)NC(=O)/C3=C\c2[nH]c(C)c(CCC(=O)O)c2C)c1 [NP603]
IC50 (FGFR1): 400 nM

CCN(CC)CCCCNc1ncc2cc(-c3cc(OC)cc(OC)c3)c(NC(=O)NC(C)(C)C)nc2n1 [PD173074, reference compound]
effect on abnormal morphogenesis induced by iFGFR1 activation ([1]; 1 μM): prevented
effect on growth of wild-type MCF10A cells (wild-type MCF10A cells): neither FIIN-1 nor PD173074 affected the growth
inhibition of autophosphorylation of FGFR1-V561M (V561M FGFR1): incapable of inhibiting
EC50 (KATO III): 22 nM
EC50 (RT4): 50 nM
EC50 (SNU-16 [2]): 120 nM
EC50 (STS-0421): 120 nM
EC50 (G-401): 210 nM
EC50 (SBC-3 [3]): 320 nM
EC50 (A2.1): 340 nM
EC50 (A2780 [4]): 820 nM
EC50 (FU97): 1160 nM
EC50 (G-402): 2480 nM
EC50 (R082-W-1): 2500 nM
EC50 (LU99A): 3000 nM
EC50 (RD-ES): > 5000 nM
EC50 (PA-1): > 5000 nM
EC50 (JAR): > 5000 nM
EC50 (H520): > 5000 nM
EC50 (VM-CUB1): > 5000 nM
EC50 (NCI-H1703): > 5000 nM
EC50 (JHH-7): > 5000 nM
EC50 (TOV-112D): > 5000 nM
EC50 (sensitivity in cell proliferation assay) (MFE-296 cells): sub-micromolar
EC50 (sensitivity in cell proliferation assay) (AN3CA cells): sub-micromolar
sensitivity in cell proliferation assay (Hec-1B cells): not sensitive

C=CC(=O)Nc1cccc(CN2C(=O)N(c3c(Cl)c(OC)cc(OC)c3Cl)Cc3cnc(NCCCCN(CC)CC)nc32)c1 [FIIN-1]
IC50 (FLT1): 661 nM
effect on abnormal morphogenesis induced by iFGFR1 activation ([1]; 20 nM): prevented
effect on growth of wild-type MCF10A cells (wild-type MCF10A cells): neither FIIN-1 nor PD173074 affected the growth
EC50 (wild-type Ba/F3 cells): > 10000 nM
EC50 (RT4): 70 nM
EC50 (SNU-16 [2]): 30 nM
EC50 (G-401): 140 nM
EC50 (SBC-3 [3]): 80 nM
EC50 (A2.1): 230 nM
EC50 (A2780 [4]): 220 nM
EC50 (FU97): 650 nM
EC50 (G-402): 1650 nM
EC50 (R082-W-1): > 5000 nM
EC50 (LU99A): > 5000 nM
EC50 (RD-ES): 2300 nM
EC50 (PA-1): 4600 nM
EC50 (JAR): > 5000 nM
EC50 (H520): 4500 nM
EC50 (VM-CUB1): > 5000 nM
EC50 (NCI-H1703): > 5000 nM
EC50 (JHH-7): > 5000 nM
EC50 (TOV-112D): > 5000 nM
effect on cell survival and survival pathways (A2780 [5]): inhibited
effect on cell survival and survival pathways (SBC-3 [6]): inhibited
effect on pro-survival Akt and Erk1/2 pathways (KATO-III): potently suppressed
effect on pro-survival Akt and Erk1/2 pathways (SNU-16 [7]): potently suppressed
sensitivity in cell proliferation assay (Hec-1B cells): not sensitive
EC50 (WT iFGFR1 MCF10A cells): 2.7 nM
